Source: patent US9365540B2, “Benzimidazole derivatives as MCH receptor antagonists” (Takeda Pharmaceutical Company Limited, priority 2012, dated 2016)
Structures can show the parent of a compound that is named as a salt. Where two headings read alike, the source gives them in different places.

What was measured:
human MCHR1 = target: T1, human MCHR1 (Homo sapiens, UniProt Q99705); test: MCH receptor 1 antagonistic activity, Ca2+ mobilization assay; format: cell-based; conditions: for inhibition at 0.1 µM: CHO, read-out: Inhibitory rate % (0.1 μM); for Inhibitory rate % (0.1 μM): hydrochloride
T1 construct: expressed in transfected cells; host or cells: CHO dhfr- cells, clone #4
Description: Measurement of MCH Receptor 1 Antagonistic Activity of Test Compound Using Ca^2+ Mobilization Assay Using an expression vector plasmid introduced with human MCHR1 gene for expression in animal cells, human MCHR1 gene was introduced into CHO cells (CHO dhfr^−) by Lipofectamine LTX (Invitrogen). The cells were cultured in selection MEMα medium [445 mL of MEMα medium without nucleic acid and added with 5 mL of Penicillin-Streptomycin (Invitrogen) and 50 mL of dialyzed fetal bovine serum]. Colony 24 clones grown in the selection medium, which were human MCHR1 gene-expressing CHO cell candidates, were selected. […] In the following test, this human MCHR1-expressing CHO cell (clone #4) was used. An integrated dispensing function fluorometer (CellLux, PerkinElmer) was used for Ca^2+ mobilization assay. […] The medium was removed, and the cells were washed with phosphate buffered saline (PBS). […] The plate was set on a plate reader. […] The inhibition rates (%) of test compounds (0.1 μM) as antagonist activity measured using human MCHR1-expressing CHO cells (clone #4) are shown in the following Table 3.

[1] = target: T2, human MCH receptor 1 (MCHR1) (Homo sapiens, UniProt Q99705); test: human MCH receptor 1 (MCHR1) competitive binding assay with [125I]-MCH(4-19); conditions: test compound 0.1 μM, human MCHR1-expressing CHO cell membrane fraction; for inhibition at 0.1 µM: read-out: Binding inhibition rate % (0.1 μM)
T2 construct: expressed in transfected cells; host or cells: CHO cell clone 57 (membrane fraction)
Outline: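 Membranes from CHO cells expressing human MCHR1 incubated with [125I]-MCH(4-19) and test compound in 20 mM Tris-HCl pH 7.5/5 mM EDTA with protease inhibitors, 1 hr at room temperature. Bound radioactivity collected on PEI-treated GF/C filters; % inhibition at 0.1 μM compound, nonspecific binding set with cold MCH(1-19).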

[2] = test compound 0.1 μM, human MCHR1-expressing CHO cells (clone #4), ligand MCH(4-19) 2 nM

T2 sequence (Q99705 whole entry): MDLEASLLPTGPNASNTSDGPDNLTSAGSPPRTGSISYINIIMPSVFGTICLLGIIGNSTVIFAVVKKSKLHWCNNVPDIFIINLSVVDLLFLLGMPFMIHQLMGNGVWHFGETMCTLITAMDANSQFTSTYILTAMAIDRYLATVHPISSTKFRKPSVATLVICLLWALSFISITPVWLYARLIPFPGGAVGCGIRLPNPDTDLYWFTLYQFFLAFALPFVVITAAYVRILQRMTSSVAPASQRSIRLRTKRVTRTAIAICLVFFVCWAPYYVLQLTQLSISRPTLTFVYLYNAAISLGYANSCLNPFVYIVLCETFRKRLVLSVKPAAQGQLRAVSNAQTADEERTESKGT
T1 sequence (Q99705 whole entry): as above

| SMILES | inhibition at 0.1 µM (human MCHR1; [2]) [%] | inhibition at 0.1 µM [1] [%] | Inhibitory rate % (0.1 μM) (human MCHR1; [2]) [%] | Binding inhibition rate % (0.1 μM) ([1]; hydrochloride, 0.1 µM) [%] | inhibition at 0.1 µM (human MCHR1) [%] |
| --- | --- | --- | --- | --- | --- |
| Cc1c(C2CC2)nc2ccc(-n3ccc(OCc4ccc(Br)cc4)cc3=O)cn12 [Example 192, 4-((4-Bromobenzyl)oxy)-1-(2-cyclopropyl-3-methylimidazo[1,2-a]pyridin-6-yl)pyridin-2(1H)-one] | 98 | 85 |  |  |  |
| Cc1c(C2CC2)nc2ccc(-n3ccc(OCc4nc(C(F)(F)F)cs4)cc3=O)cn12 [Example 193, 1-(2-Cyclopropyl-3-methylimidazo[1,2-a]pyridin-6-yl)-4-((4-(trifluoromethyl)-1,3-thiazol-2-yl)methoxy)pyridin-2(1H)-one] | 99 | 89 |  |  |  |
| Cc1c(C2CC2)nc2ccc(-n3ccc(OCc4nc(Br)cs4)cc3=O)cn12 [Example 194, 4-((4-Bromo-1,3-thiazol-2-yl)methoxy)-1-(2-cyclopropyl-3-methylimidazo[1,2-a]pyridin-6-yl)pyridin-2(1H)-one] | 100 | 82 |  |  |  |
| Cn1c(C2CC2)nc2ccc(-n3ccc(OCc4ccc(Cl)o4)cc3=O)cc21 [Example 202, 4-((5-Chloro-2-furyl)methoxy)-1-(2-cyclopropyl-1-methyl-1H-benzimidazol-6-yl)pyridin-2(1H)-one] | 104 | 67 |  |  |  |
| Cn1c(C2CC2)nc2ccc(-n3ccc(OCc4cc(Cl)cs4)cc3=O)cc21 [Example 228, 4-((4-Chlorothiophen-2-yl)methoxy)-1-(2-cyclopropyl-1-methyl-1H-benzimidazol-6-yl)pyridin-2(1H)-one] | 103 | 89 |  |  |  |
| CCc1nc2ccc(-n3ccc(OCc4csc(F)c4)cc3=O)cc2n1C [Example 231, 1-(2-Ethyl-1-methyl-1H-benzimidazol-6-yl)-4-((5-fluoro-3-thienyl)methoxy)pyridin-2(1H)-one] | 95 | 71 |  |  |  |
| CCc1nc2ccc(-n3ccc(OCc4ccsc4)cc3=O)cc2n1C [Example 235, 1-(2-Ethyl-1-methyl-1H-benzimidazol-6-yl)-4-(3-thienylmethoxy)pyridin-2(1H)-one] | 93 | 69 |  |  |  |
| CCc1nc2ccc(-n3ccc(OCc4cc(Cl)cs4)cc3=O)cc2n1C [Example 236, 4-((4-Chlorothiophen-2-yl)methoxy)-1-(2-ethyl-1-methyl-1H-benzimidazol-6-yl)pyridin-2(1H)-one] | 96 | 76 |  |  |  |
| Cn1c(C2CC2C#N)nc2ccc(-n3ccc(OCc4ccc(Cl)cc4)cc3=O)cc21 (stereo not drawn) [Example 237, (1R*,2S*)-2-(6-(4-((4-Chlorobenzyl)oxy)-2-oxopyridin-1(2H)-yl)-1-methyl-1H-benzimidazol-2-yl)cyclopropanecarbonitrile hydrochloride] |  | 78 | 67 |  |  |
| Cn1c(C2CC2C#N)nc2ccc(-n3ccc(OCc4ccc(Cl)cc4)cc3=O)cc21 (stereo not drawn) [Example 238, (1R*,2S*)-2-(6-(4-((4-Chlorobenzyl)oxy)-2-oxopyridin-1(2H)-yl)-1-methyl-1H-benzimidazol-2-yl)cyclopropanecarbonitrile hydrochloride] |  |  | 42 | 65 |  |
| Cn1c(C2CC2)nc2ccc(-n3ccc(OCc4cc(F)c(F)s4)cc3=O)cc21 [Example 239, 1-(2-Cyclopropyl-1-methyl-1H-benzimidazol-6-yl)-4-((4,5-difluoro-2-thienyl)methoxy)pyridin-2(1H)-one] | 92 | 74 |  |  |  |
| Cn1c(C2CC2)nc2ccc(-n3ccc(OCc4cc(Br)cs4)cc3=O)cc21 [Example 240, 4-((4-Bromo-2-thienyl)methoxy)-1-(2-cyclopropyl-1-methyl-1H-benzimidazol-6-yl)pyridin-2(1H)-one] | 99 | 91 |  |  |  |
| Cn1c(C2CC2)nc2ccc(-n3ccc(OCc4ccc(C(F)(F)F)o4)cc3=O)cc21 [Example 241, 1-(2-Cyclopropyl-1-methyl-1H-benzimidazol-6-yl)-4-((5-(trifluoromethyl)-2-furyl)methoxy)pyridin-2(1H)-one] | 76 | 56 |  |  |  |
| Cn1c(C2CC2)nc2ccc(-n3ccc(COc4ccc(F)cc4)cc3=O)cc21 [Example 243, 1-(2-Cyclopropyl-1-methyl-1H-benzimidazol-6-yl)-4-((4-fluorophenoxy)methyl)pyridin-2(1H)-one] | 72 | 38 |  |  |  |
| Cn1c(C2CC2)nc2ccc(-n3ccc(OCc4cc(Br)c(F)s4)cc3=O)cc21 [Example 244, 4-((4-Bromo-5-fluoro-2-thienyl)methoxy)-1-(2-cyclopropyl-1-methyl-1H-benzimidazol-6-yl)pyridin-2(1H)-one] | 98 | 83 |  |  |  |
| Cn1c(C2CC2)nc2ccc(-n3ccc(COc4ccc(Cl)cc4)cc3=O)cc21 [Example 245, 4-((4-Chlorophenoxy)methyl)-1-(2-cyclopropyl-1-methyl-1H-benzimidazol-6-yl)pyridin-2(1H)-one] | 58 | 59 |  |  |  |
| Cn1c(C2CC2)nc2ccc(-n3ccc(OCc4ccc(C(F)F)s4)cc3=O)cc21 [Example 248, 1-(2-Cyclopropyl-1-methyl-1H-benzimidazol-6-yl)-4-((5-(difluoromethyl)-2-thienyl)methoxy)pyridin-2(1H)-one] | 97 | 79 |  |  |  |
| Cn1c(C2CC2)nc2ccc(-n3ccc(OCc4csc(Br)c4)cc3=O)cc21 [Example 250, 4-((5-Bromo-3-thienyl)methoxy)-1-(2-cyclopropyl-1-methyl-1H-benzimidazol-6-yl)pyridin-2(1H)-one] | 100 | 92 |  |  |  |
| Cn1c(C2CC2)nc2ccc(-n3ccc(OCc4nc(C(F)(F)F)cs4)cc3=O)cc21 [Example 256, 1-(2-Cyclopropyl-1-methyl-1H-benzimidazol-6-yl)-4-((4-(trifluoromethyl)-1,3-thiazol-2-yl)methoxy)pyridin-2(^1H)-one] | 97 | 70 |  |  |  |
| Cn1c(C2CC2)nc2ccc(-n3ccc(OCc4ccc(Br)o4)cc3=O)cc21 [Example 259, 4-((5-Bromo-2-furyl)methoxy)-1-(2-cyclopropyl-1-methyl-1H-benzimidazol-6-yl)pyridin-2(1H)-one] | 100 | 70 |  |  |  |
| Cn1c(C2CC2)nc2ccc(-n3ccc(OCc4ccc(Br)cn4)cc3=O)cc21 [Example 260, 4-((5-Bromopyridin-2-yl)methoxy)-1-(2-cyclopropyl-1-methyl-1H-benzimidazol-6-yl)pyridin-2(1H)-one] | 104 | 75 |  |  |  |
| CCc1nc2ccc(-n3ccc(OCc4nc(C(F)(F)F)cs4)cc3=O)cc2n1C [Example 261, 1-(2-Ethyl-1-methyl-1H-benzimidazol-6-yl)-4-((4-(trifluoromethyl)-1,3-thiazol-2-yl)methoxy)pyridin-2(1H)-one] | 100 | 57 |  |  |  |
| Cn1c(C2CC2)nc2ccc(-n3ccc(OCc4coc(Br)c4)cc3=O)cc21 [Example 262, 4-((5-Bromo-3-furyl)methoxy)-1-(2-cyclopropyl-1-methyl-1H-benzimidazol-6-yl)pyridin-2(1H)-one] | 98 | 80 |  |  |  |
| Cc1c(C2CC2)nc2ccc(-n3ccc(OCc4ccccn4)cc3=O)cn12 [Example 263, 1-(2-Cyclopropyl-3-methylimidazo[1,2-a]pyridin-6-yl)-4-(pyridin-2-ylmethoxy)pyridin-2(1H)-one hydrochloride] |  | 30 |  |  | 52 |
| CCc1nc2ccc(-n3ccc(OCc4csc(C(F)(F)F)c4)cc3=O)cc2n1C [Example 265, 1-(2-Ethyl-1-methyl-1H-benzimidazol-6-yl)-4-((5-(trifluoromethyl)-3-thienyl)methoxy)pyridin-2(1H)-one] | 97 | 61 |  |  |  |
| Cc1csc(COc2ccn(-c3ccc4nc(C5CC5)n(C)c4c3)c(=O)c2)n1 [Example 268, 1-(2-Cyclopropyl-1-methyl-1H-benzimidazol-6-yl)-4-((4-methyl-1,3-thiazol-2-yl)methoxy)pyridin-2(1H)-one] | 86 | 66 |  |  |  |
| Cn1c(C2CC2)nc2ccc(-n3ccc(OCc4nc(CF)cs4)cc3=O)cc21 [Example 270, 1-(2-Cyclopropyl-1-methyl-1H-benzimidazol-6-yl)-4-((4-(fluoromethyl)-1,3-thiazol-2-yl)methoxy)pyridin-2(1H)-one] | 73 | 58 |  |  |  |
